The results in this text go back to patent US20050215614A1, “Substituted indoles and their use as hcv inhibitors” (Rigel Pharmaceuticals, Inc., priority 2003, published 2005).

This assay has as its system HCV replicon. The assay can be described thus: HCV Replicon Assay (luciferase, 5-2 Luc replicon cells). It is filed as cell-based. The settings on record: 5-2 Luc replicon cells (Huh7), 24-48 hours with compound, luciferase counts. As for the experimental part: Actively dividing 5-2 Luc replicon cells were seeded at the density of 5000-7500 cells/well in the volume of 90 μl/well into 96 well plate(s). The cells were then incubated at 37° C. and 5% CO2 for 24 hours. The 5-2 cells are replicon cells licensed from Ralf Bartenschlager (Germany) and have a self-replicating RNA molecule in the Huh7 cell; the RNA contains HCV non-structural proteins that make the self-replication possible.
Various concentrations of compounds (in the volume of 10 μl) were added into each well 24 hours after seeding the cells. The cells were incubated for another 24-48 hours before luciferase assay.
After incubating the 5-2 Luc replicon cells with the compounds for 24-48 hours, media were aspirated from each well and Bright-Glo (Promega) luciferase assay reagents were added to each well according to the manufacturer′s manual. Briefly, the Bright-Glo reagent was diluted with equal volume of PBS and an aliquote (100 μl) was added to each well. After incubating the plate at room temperature for 5 minutes, luciferase counts were taken using a luminometer.
For orientation: In antiviral work, replicon cells carry a viral genome segment that copies itself.
For `CC(C)(C)c1cc2cc(NC(=O)Cc3cccc4ccccc34)ccc2[nH]1` [Compound 5a, 2-t-Butyl-5-(naphth-1-yl-ethanoyl)aminoindole], the “Activity (concentration of inhibitory activity)” value is “b (“b” indicates activity is at a concentration greater than 10 micromolar)”.
Consider `CC(C)(C)c1cc2cc(NC(=O)Cc3cccc([N+](=O)[O-])c3)ccc2[nH]1` [Compound 5b, 2-t-Butyl-5-(3-nitrophenylethanoyl)aminoindole], for which the “Activity (concentration of inhibitory activity)” value is “b (“b” indicates activity is at a concentration greater than 10 micromolar)”.
For the compound `CC(C)(C)c1cc2cc(NC(=O)C3CCCC3)ccc2[nH]1` [Compound 5c, 2-t-Butyl-5-(cyclopentanecarbonyl)aminoindole], the “Activity (concentration of inhibitory activity)” value was “a (“a” indicates inhibitory activity at a concentration of less than 10 micromolar)”.
With `CC(C)(C)c1cc2cc(NC(=O)C3(c4ccc(Cl)cc4)CCCC3)ccc2[nH]1` [Compound 5d, 2-t-Butyl-5-(1-(4chlorophenyl)-1-cyclopentanecarbonyl)aminoindole], the “Activity (concentration of inhibitory activity)” value is “b (“b” indicates activity is at a concentration greater than 10 micromolar)”.
The result for `CC(C)(C)c1cc2cc(NC(=O)c3c(F)cccc3F)ccc2[nH]1` [Compound 5e, 2-t-Butyl-5-(2′,6′-difluorophenylcarbonyl)aminoindole] reads “a (“a” indicates inhibitory activity at a concentration of less than 10 micromolar)”.
Consider `CC(C)(C)c1cc2cc(NC(=O)c3ccc(Cl)cc3Cl)ccc2[nH]1` [Compound 5f, 2-t-Butyl-5-(2′,4′-dichlorophenylcarbonyl)aminoindole], for which the “Activity (concentration of inhibitory activity)” value is reported as “a (“a” indicates inhibitory activity at a concentration of less than 10 micromolar)”.
The result for `Cc1ccsc1C(=O)Nc1ccc2[nH]c(C(C)(C)C)cc2c1` [Compound 5g, 2-t-Butyl-5-(3-methylthiophene-2-carbonyl)aminoindole] reads “a (“a” indicates inhibitory activity at a concentration of less than 10 micromolar)”; that for `CC(C)(C)c1cc2cc(NC(=O)C(Cl)Cl)ccc2[nH]1` [Compound 5h, 2-t-Butyl-5-dichloroacetamidoindole], “a (“a” indicates inhibitory activity at a concentration of less than 10 micromolar)”.
The result for `Cc1cn(C(=O)c2c(Cl)cccc2Cl)c2ccc(NC(=O)C3CCCC3)cc12` [Compound 9a, 5-(Cyclopentanecarbonyl)amino-1-(2′,6′-dichlorobenzoyl)-3-methylindole] reads “a (“a” indicates inhibitory activity at a concentration of less than 10 micromolar)”; that for `CCCC(=O)Nc1ccc2c(c1)c(C)cn2C(=O)c1c(Cl)cccc1Cl` [Compound 9b, 1-(2′,6′-Dichlorobenzoyl)-3-methyl-5-(n-propanecarbonyl)aminoindole], “a (“a” indicates inhibitory activity at a concentration of less than 10 micromolar)”.
The entry for `Cc1cn(C(=O)c2c(Cl)cccc2Cl)c2ccc(NC(=O)C3CCC3)cc12` [Compound 9c, 5-(Cyclobutanecarbonyl)amino-1-(2′,6′-dichlorobenzoyl)-3-methylindole] is “a (“a” indicates inhibitory activity at a concentration of less than 10 micromolar)”; for `Cc1cn(C(=O)c2c(Cl)cccc2Cl)c2ccc(NC(=O)C3CC3)cc12` [Compound 9d, 5-(Cyclopropanecarbonyl)amino-1-(2′,6′-dichlorobenzoyl)-3-methylindole] it is “a (“a” indicates inhibitory activity at a concentration of less than 10 micromolar)”.
`CCCCC(=O)Nc1ccc2c(c1)c(C)cn2C(=O)c1c(Cl)cccc1Cl` [Compound 9e, 5-(n-Butanecarbonyl)amino-1-(2′,6′-dichlorobenzoyl)-3-methylindole]: the “Activity (concentration of inhibitory activity)” value is listed as “a (“a” indicates inhibitory activity at a concentration of less than 10 micromolar)”.
The result for `C/C=C/C(=O)C(=O)Nc1ccc2c(c1)c(C)cn2C(=O)c1c(Cl)cccc1Cl` [Compound 9f, 5-(trans-Crotonylcarbonyl)amino-1-(2′,6′-dichlorobenzoyl)-3-methylindole] reads “a (“a” indicates inhibitory activity at a concentration of less than 10 micromolar)”.
Regarding `Cc1c(C)n(C(=O)c2c(Cl)cccc2Cl)c2ccc(NC(=O)C3CCCCC3)cc12` [Compound 13a, 5-(Cyclohexanecarbonyl)amino-1-(2′,6′-dichlorobenzoyl)-2,3-dimethylindole], the “Activity (concentration of inhibitory activity)” value is reported as “a (“a” indicates inhibitory activity at a concentration of less than 10 micromolar)”.
Take `Cc1c(C)n(C(=O)c2c(Cl)cccc2Cl)c2ccc(NC(=O)C3CCCC3)cc12` [Compound 13b, 5-(Cyclopentanecarbonyl)amino-1-(2′,6′-dichlorobenzoyl)-2,3-dimethylindole]: the “Activity (concentration of inhibitory activity)” value is “a (“a” indicates inhibitory activity at a concentration of less than 10 micromolar)”.
With `Cc1c(C)n(C(=O)c2c(Cl)cccc2Cl)c2ccc(NC(=O)C3CCC3)cc12` [Compound 13c, 5-(Cyclobutanecarbonyl)amino-1-(2′,6′-dichlorobenzoyl)-2,3-dimethylindole], the “Activity (concentration of inhibitory activity)” value is “a (“a” indicates inhibitory activity at a concentration of less than 10 micromolar)”.
For the compound `Cc1c(C)n(C(=O)c2c(Cl)cccc2Cl)c2ccc(NC(=O)C3CC3)cc12` [Compound 13d, 5-(Cyclopropanecarbonyl)amino-1-(2′,6′-dichlorobenzoyl)-2,3-dimethylindole], the “Activity (concentration of inhibitory activity)” value is given as “a (“a” indicates inhibitory activity at a concentration of less than 10 micromolar)”.
In the case of `CCCCC(=O)Nc1ccc2c(c1)c(C)c(C)n2C(=O)c1c(Cl)cccc1Cl` [Compound 13e, 5-(n-Butanecarbonyl)amino-1-(2′,6′-dichlorobenzoyl)-2,3-dimethylindole], the “Activity (concentration of inhibitory activity)” value is listed as “a (“a” indicates inhibitory activity at a concentration of less than 10 micromolar)”.
`Cc1cc2cc(NC(=O)C3CCCCC3)ccc2n1C(=O)c1c(Cl)cccc1Cl` [Compound 16a-2, 5-Cyclohexanecarbonylamino-1-(2′,6′-dichlorobenzoyl)-2-methylindole]: the “Activity (concentration of inhibitory activity)” value was “a (“a” indicates inhibitory activity at a concentration of less than 10 micromolar)”.
The entry for `Cc1cc2cc(NC(=O)C3CCC3)ccc2n1C(=O)c1c(Cl)cccc1Cl` [Compound 16a-3, 5-Cyclobutanecarbonylamino-1-(2′,6′-dichlorobenzoyl)-2-methylindole] is “a (“a” indicates inhibitory activity at a concentration of less than 10 micromolar)”; for `Cc1cc2cc(NC(=O)C3CC3)ccc2n1C(=O)c1c(Cl)cccc1Cl` [Compound 16a-4, 5-Cyclopropanecarbonylamino-1-(2′,6′-dichlorobenzoyl)-2-methylindole] it is “a (“a” indicates inhibitory activity at a concentration of less than 10 micromolar)”.
`Cc1cc2cc(NC(=O)C(C)C)ccc2n1C(=O)c1c(Cl)cccc1Cl` [Compound 16a-5, 1-(2′,6′-Dichlorobenzoyl)-5-(2-methylpropanoyl)amino-2-methylindole]: the “Activity (concentration of inhibitory activity)” value is reported as “a (“a” indicates inhibitory activity at a concentration of less than 10 micromolar)”.
Regarding `CCC(C)C(=O)Nc1ccc2c(c1)cc(C)n2C(=O)c1c(Cl)cccc1Cl` (stereo not drawn) [Compound 16a-6, 1-(2′,6′-Dichlorobenzoyl)-5-(2-methylbutanoyl)amino-2-methylindole], the “Activity (concentration of inhibitory activity)” value is recorded as “a (“a” indicates inhibitory activity at a concentration of less than 10 micromolar)”.
As for `CCCCC(=O)Nc1ccc2c(c1)cc(C)n2C(=O)c1c(Cl)cccc1Cl` [Compound 16a-7, 1-(2′,6′-Dichlorobenzoyl)-5-(n-pentanoyl)amino-2-methylindole], the “Activity (concentration of inhibitory activity)” value is “a (“a” indicates inhibitory activity at a concentration of less than 10 micromolar)”.
The entry for `C/C=C/C(=O)Nc1ccc2c(c1)cc(C)n2C(=O)c1c(Cl)cccc1Cl` [Compound 16a-8, 5-(trans-Crotonyl)amino-1-(2′,6′-dichlorobenzoyl)-2-methylindole] is “a (“a” indicates inhibitory activity at a concentration of less than 10 micromolar)”; for `CCC(CC)C(=O)Nc1ccc2c(c1)cc(C)n2C(=O)c1c(Cl)cccc1Cl` [Compound 16a-9, 1-(2′,6′-Dichlorobenzoyl)-5-(2-ethylbutanoyl)amino-2-methylindole] it is “a (“a” indicates inhibitory activity at a concentration of less than 10 micromolar)”; for `Cc1cc2cc(NC(=O)c3cccnc3)ccc2n1C(=O)c1c(Cl)cccc1Cl` [Compound 16a-10, 1-(2′,6′-Dichlorobenzoyl)-5-(3-pyridylcarbonyl)amino-2-methylindole] it is “a (“a” indicates inhibitory activity at a concentration of less than 10 micromolar)”.
The entry for `Cc1ccsc1C(=O)Nc1ccc2c(c1)cc(C)n2C(=O)c1c(Cl)cccc1Cl` [Compound 16a-11, 1-(2′,6′-Dichlorobenzoyl)-5-(3-methyl-2-thiophenylcarbonyl)amino-2-methylindole] is “a (“a” indicates inhibitory activity at a concentration of less than 10 micromolar)”; for `COc1cscc1C(=O)Nc1ccc2c(c1)cc(C)n2C(=O)c1c(Cl)cccc1Cl` [Compound 16a-12, 1-(2′,6′-Dichlorobenzoyl)-5-(4-methoxy-3-thiophenylcarbonyl)amino-2-methylindole] it is “a (“a” indicates inhibitory activity at a concentration of less than 10 micromolar)”.
